From patent US8735414B2 (priority 2009, dated 2014)

How the values were obtained:
[1] = system: bicistronic HCV replicon (replicon RNA, GenBank Accession No. AJ242654); experiment: HCV Replicon Assay; type: cell-based; conditions: Hepatitis C virus, 72 h, read-out: Replicon IC50

Row | Structure (SMILES) | melting point [°C] | IC50 [1] [nM]
1 | C[C@H](NS(=O)(=O)c1ccc(-c2c(C#N)c3cc(F)c(OC(F)F)cc3n2CC2CC2)nc1)C(F)(F)F [compound 787, 6-[3-cyano-1-(cyclopropylmethyl)-6-(difluoromethoxy)-5-fluoro-1H-indol-2-yl]-N-[(2S)-1,1,1-trifluoropropan-2-yl]pyridine-3-sulfonamide] | 149 to 153 | < 500
2 | Cc1cc2c(cc1F)c(C#N)c(-c1ncc(S(=O)(=O)N[C@@H](C)C(F)(F)F)cc1C)n2C1CCCC1 [compound 837, 6-(3-cyano-1-cyclopentyl-5-fluoro-6-methyl-1H-indol-2-yl)-5-methyl-N-[(2S)-1,1,1-trifluoropropan-2-yl]pyridine-3-sulfonamide] | 237 to 242 | < 500
3 | Cc1cc2c(cc1F)cc(-c1ccc(S(=O)(=O)N[C@@H](C)C(F)(F)F)cn1)n2-c1ccnc(F)c1 [compound 944, 6-[5-fluoro-1-(2-fluoropyridin-4-yl)-6-methyl-1H-indol-2-yl]-N-[(2S)-1,1,1-trifluoropropan-2-yl]pyridine-3-sulfonamide] | 176 to 180 | 500 to 2000
4 | CC(C)(C)S(=O)(=O)Nc1ccc(-c2c(C(N)=O)c3c(F)cc(C4CC4)cc3n2C2CCCCC2)cn1 [compound 1088, 2-{6-[(tert-butylsulfonyl)amino]pyridin-3-yl}-1-cyclohexyl-6-cyclopropyl-4-fluoro-1H-indole-3-carboxamide] | 290 to 294 | < 500
5 | CC(C)(C)S(=O)(=O)Nc1ccc(-c2c(C(N)=O)c3cc(F)c(OCF)cc3n2C2CCCCC2)cn1 [compound 1102, 2-{6-[(tert-butylsulfonyl)amino]pyridin-3-yl}-1-cyclohexyl-5-fluoro-6-(fluoromethoxy)-1H-indole-3-carboxamide] | 274 to 276 | < 500
6 | Cc1ccc2c(C#N)c(-c3ccc(S(=O)(=O)N[C@@H](C)C(F)(F)F)cn3)n(C(C)C)c2c1 [compound 355, 6-[3-cyano-6-methyl-1-(propan-2-yl)-1H-indol-2-yl]-N-[(2S)-1,1,1-trifluoropropan-2-yl]pyridine-3-sulfonamide] | 211 to 216 | < 500
7 | Cc1cc2c(cc1F)c(C#N)c(-c1ccc(S(=O)(=O)N[C@H](C)C(F)(F)F)cn1)n2C1CCCCC1 [compound 680, 6-(3-cyano-1-cyclohexyl-5-fluoro-6-methyl-1H-indol-2-yl)-N-[(2R)-1,1,1-trifluoropropan-2-yl]pyridine-3-sulfonamide] | 224 to 229 | < 500
8 | CC(C)(NS(=O)(=O)c1ccc(-c2c(C#N)c3ccc(OC(F)F)cc3n2-c2ncccn2)nc1)C(F)(F)F [compound 663, 6-[3-cyano-6-(difluoromethoxy)-1-(pyrimidin-2-yl)-1H-indol-2-yl]-N-(1,1,1-trifluoro-2-methylpropan-2-yl)pyridine-3-sulfonamide] | 179 to 180 | 500 to 2000
9 | N#Cc1c(-c2ccc(S(=O)(=O)NC(CF)CF)cn2)n(CC2CC2)c2cc(OC(F)F)ccc12 [compound 41, 6-[3-cyano-1-(cyclopropylmethyl)-6-(difluoromethoxy)-1H-indol-2-yl]-N-(1,3-difluoropropan-2-yl)pyridine-3-sulfonamide] | 150 to 151 | < 500
10 | Cc1ccc2c(c1)c(C#N)c(-c1ncc(S(=O)(=O)N[C@@H](C)C3CC3)cn1)n2C(C)C [compound 563, 2-[3-cyano-5-methyl-1-(propan-2-yl)-1H-indol-2-yl]-N-[(1S)-1-cyclopropylethyl]pyrimidine-5-sulfonamide] | 171 to 174 | 500 to 2000
11 | CC(C)NS(=O)(=O)c1ccc(-c2c(C#N)c3cc(F)ccc3n2CC2CC2)nc1 [compound 6, 6-[3-cyano-1-(cyclopropylmethyl)-5-fluoro-1H-indol-2-yl]-N-(propan-2-yl)pyridine-3-sulfonamide] | 160 to 162 | < 500
12 | Cc1cncc(-n2c(-c3ccc(S(=O)(=O)N[C@@H](C)C(F)(F)F)cn3)c(C#N)c3cc(F)c(C)cc32)n1 [compound 915, 6-[3-cyano-5-fluoro-6-methyl-1-(6-methylpyrazin-2-yl)-1H-indol-2-yl]-N-[(2S)-1,1,1-trifluoropropan-2-yl]pyridine-3-sulfonamide] | 211 to 215 | < 500
13 | N#Cc1c(-c2ccc(S(=O)(=O)NC(CF)CF)cn2)n(C2CCC2)c2ccc(Cl)cc12 [compound 30, 6-(5-chloro-3-cyano-1-cyclobutyl-1H-indol-2-yl)-N-(1,3-difluoropropan-2-yl)pyridine-3-sulfonamide] | 182 to 186 | < 500
14 | CCc1cc2c(cc1F)c(C#N)c(-c1ccc(S(=O)(=O)N[C@@H](C)C(F)(F)F)cn1)n2-c1cccc(F)c1 [compound 1008, 6-[3-cyano-6-ethyl-5-fluoro-1-(3-fluorophenyl)-1H-indol-2-yl]-N-[(2S)-1,1,1-trifluoropropan-2-yl]pyridine-3-sulfonamide] | 210 to 214 | < 500
15 | C[C@H](NS(=O)(=O)c1ccc(-c2c(C#N)c3ccc(Cl)cc3n2-c2ccccn2)nc1)C(F)(F)F [compound 437, 6-[6-chloro-3-cyano-1-(pyridin-2-yl)-1H-indol-2-yl]-N-[(2S)-1,1,1-trifluoropropan-2-yl]pyridine-3-sulfonamide] | 177 to 178 | < 500
16 | N#Cc1c(-c2ccc(S(=O)(=O)NC(CF)CF)cn2)n(C2CCCC2)c2ccc(OC(F)(F)F)cc12 [compound 34, 6-[3-cyano-1-cyclopentyl-5-(trifluoromethoxy)-1H-indol-2-yl]-N-(1,3-difluoropropan-2-yl)pyridine-3-sulfonamide] | 159 to 160 | < 500
17 | C[C@H](NS(=O)(=O)c1ccc(-c2c(C(N)=O)c3cc(F)c(Cl)cc3n2C2CCC2)nc1)C(F)(F)F [compound 736, 6-chloro-1-cyclobutyl-5-fluoro-2-(5-{[(2S)-1,1,1-trifluoropropan-2-yl]sulfamoyl}pyridin-2-yl)-1H-indole-3-carboxamide] | 241 to 243 | < 500
18 | C[C@H](NS(=O)(=O)c1cnc(-c2c(C#N)c3cc(F)ccc3n2C2CCC2)nc1)C(F)(F)F [compound 451, 2-(3-cyano-1-cyclobutyl-5-fluoro-1H-indol-2-yl)-N-[(2S)-1,1,1-trifluoropropan-2-yl]pyrimidine-5-sulfonamide] | 198 to 203 | < 500
19 | Cc1ccc2c(C#N)c(-c3ccc(S(=O)(=O)N[C@H](C)C(F)(F)F)cn3)n(CC3CC3)c2c1 [compound 197, 6-[3-cyano-1-(cyclopropylmethyl)-6-methyl-1H-indol-2-yl]-N-[(2R)-1,1,1-trifluoropropan-2-yl]pyridine-3-sulfonamide] | 165 to 169 | < 500
20 | CCCn1c(-c2ncc(S(=O)(=O)NC(CF)CF)cn2)c(C#N)c2ccc(OC(F)F)cc21 [compound 232, 2-[3-cyano-6-(difluoromethoxy)-1-propyl-1H-indol-2-yl]-N-(1,3-difluoropropan-2-yl)pyrimidine-5-sulfonamide] | 177 to 179 | < 500
21 | Cc1cc2c(cc1Cl)c(C(N)=O)c(-c1ccc(S(=O)(=O)N[C@@H](C)C(F)(F)F)cn1)n2C1CCC1 [compound 734, 5-chloro-1-cyclobutyl-6-methyl-2-(5-{[(2S)-1,1,1-trifluoropropan-2-yl]sulfamoyl}pyridin-2-yl)-1H-indole-3-carboxamide] | 207 to 209 | < 500
22 | Cc1cc2c(cc1F)c(C(N)=O)c(-c1ccc(S(=O)(=O)N[C@@H](C)C(F)(F)F)cn1)n2C1CCCC1 [compound 700, 1-cyclopentyl-5-fluoro-6-methyl-2-(5-{[(2S)-1,1,1-trifluoropropan-2-yl]sulfamoyl}pyridin-2-yl)-1H-indole-3-carboxamide] | 244 to 246 | < 500
23 | Cc1cc2c(cc1F)c(C#N)c(-c1ccc(S(=O)(=O)N[C@@H](C)C(F)(F)F)cn1)n2-c1cc(F)ccn1 [compound 926, 6-[3-cyano-5-fluoro-1-(4-fluoropyridin-2-yl)-6-methyl-1H-indol-2-yl]-N-[(2S)-1,1,1-trifluoropropan-2-yl]pyridine-3-sulfonamide] | 229 to 233 | < 500
24 | N#Cc1c(-c2ncc(S(=O)(=O)NC(CF)CF)cn2)n(C2CCC2)c2cc(CF)ccc12 [compound 361, 2-[3-cyano-1-cyclobutyl-6-(fluoromethyl)-1H-indol-2-yl]-N-(1,3-difluoropropan-2-yl)pyrimidine-5-sulfonamide] | 226 to 232 | < 500
25 | N#Cc1c(-c2ncc(S(=O)(=O)NC(CF)CF)cn2)n(C2CCC2)c2cc(Cl)ccc12 [compound 176, 2-(6-chloro-3-cyano-1-cyclobutyl-1H-indol-2-yl)-N-(1,3-difluoropropan-2-yl)pyrimidine-5-sulfonamide] | 243 to 246 | < 500
26 | CCc1cc2c(cc1F)c(C#N)c(-c1ccc(S(=O)(=O)N[C@@H](C)C(F)(F)F)cn1)n2-c1ccc(F)cc1 [compound 1002, 6-[3-cyano-6-ethyl-5-fluoro-1-(4-fluorophenyl)-1H-indol-2-yl]-N-[(2S)-1,1,1-trifluoropropan-2-yl]pyridine-3-sulfonamide] | 236 to 243 | < 500
27 | CC(C)(C)NS(=O)(=O)c1ccc(-c2c(C#N)c3cc(F)c(Br)cc3n2-c2ncccn2)nc1 [compound 938, 6-[6-bromo-3-cyano-5-fluoro-1-(pyrimidin-2-yl)-1H-indol-2-yl]-N-tert-butylpyridine-3-sulfonamide] | 266 to 268 | < 500
28 | CC(C)n1c(-c2ccc(S(=O)(=O)N[C@@H](C)C(F)(F)F)cn2)c(C#N)c2ccc(OC(F)F)cc21 [compound 359, 6-[3-cyano-6-(difluoromethoxy)-1-(propan-2-yl)-1H-indol-2-yl]-N-[(2S)-1,1,1-trifluoropropan-2-yl]pyridine-3-sulfonamide] | 163 to 166 | < 500
